One assay addresses HLA-A2 (Homo sapiens, UniProt P04439, D140Y/D185E/D98H/E176V/E277Q/G131W/G231S/I119V/I121R/I166T/I218V/N151K/N90K/P208A/P217A/Q86G/Q94H/R138H/R169H). As to conditions: binding at pH 6.5 at 4° C. overnight, FIG. 10A/10B.
The subject of the next assay is ESK1 antibody. Nature of the assay: ESK1 antibody binding specificity to peptide-MHC assemblies for WT1 9mer peptides. The note with it: FIG. 7. From the text: Because the array of peptides on the surface is spatially-ordered, the sequence of every peptide is immediately known. Each amino acid of the 9 amino acid peptide was substituted for each of the 20 possible amino acids to identify those positions within this peptide that are essential for forming a proper peptide-MHCI complex. […] The amino acids A, F, I, L, M, V, W and P are nonpolar amino acids. The amino acids G, S, Y, C, Q, T, N are polar amino acids. The amino acids R, K and H are basic amino acids. The amino acids D and E are acidic amino acids.

Method for HLA-A2: Binding was performed at pH 6.5 at 4° C. overnight.

RLYDYFTRV: the “peptide-MHC assembly signal, negatively charged HEX-asp-3HEX linker versus standard 5HEX linker” value on HLA-A2 is recorded as “increase in the peptide-MHC assembly signal”.

In the case of RVPGVAPTL, in the assay on ESK1 antibody, the “ESK1 antibody binding specificity (relative fluorescence intensity)” value is reported as “cross-reactive target”.

The record behind these values is patent US11583575B2, “MHC-bound peptide arrays and methods of use thereof” (Roche Sequencing Solutions, Inc., priority 2016, dated 2023).
